Experimental data reported in patent US20260020566A1, “FUNGICIDAL COMPOSITIONS” (SYNGENTA CROP PROTECTION AG, priority 2022, published 2026).
Values joined by “and” are separate entries in the source; they are usually repeats but may differ in a detail not shown here. Equal entries are not always repeated.

Assays:
Septoria tritici = Septoria tritici (Leaf blotch) liquid culture growth inhibition, microtiter plate; assay type: cell-based; conditions: single compound, 72 hrs, 24 C
Protocol: (§1) Septoria tritici (Leaf Blotch): Conidia of the fungus from cryogenic storage were directly mixed into nutrient broth (PDB potato dextrose broth). A DMSO solution of the test compounds was placed into a microtiter plate (96-well format) and the nutrient broth containing the fungal spores was added to it. The test plates were incubated at 24 C and the inhibition of growth was determined photometrically after 72 hrs.

Phakopsora pachyrhizi = Phakopsora pachyrhizi (Soybean rust) soybean leaf disk preventive fungicidal activity; assay type: in vivo; conditions: single compound, approx. 12 dpi; for inhibition at 3 g/ha / inhibition at 1 g/ha: Phakopsora pachyrhizi, foliar, read-out: Observed Activity (%)
Protocol: Phakopsora pachyrhizi (Soybean Rust): Soybean leaf disks are placed on agar in multiwell plates (24-well format) and sprayed with test solutions. After drying, the leaf disks are inoculated with a spore suspension of the fungus. After appropriate incubation the activity of a compound is assessed approx. 12 dpi (days after inoculation) as preventive fungicidal activity.

Botrytis cinerea = Botrytis cinerea (Gray mould) liquid culture growth inhibition, microtiter plate; assay type: cell-based; conditions: single compound, 72 hrs, 24 C, read-out: Observed Activity (%)
Protocol: as §1, with “Botrytis cinerea (Gray Mould):” for “Septoria tritici (Leaf Blotch):”

[1] = system: Mycosphaerella arachidis syn. Cercospora arachidicola; assay: Mycosphaerella arachidis syn. Cercospora arachidicola (Brown leaf spot of peanut) liquid culture growth inhibition; assay type: cell-based; conditions: single compound, approximately 5-6 days, 24 C, read-out: Observed Activity (%)
Protocol: as §1, with “Mycosphaerella arachidis syn. Cercospora arachidicola (Brown Leaf Spot of Peanut):” for “Septoria tritici (Leaf Blotch):”, “approximately 5-6 days at 620nm” for “72 hrs.”

[2] = Zymoseptoria tritici, read-out: Observed Activity (%)

Compound | Observed Activity (%) (Phakopsora pachyrhizi; 1 g a.i./ha) | Observed Activity (%) (Phakopsora pachyrhizi; 3 g a.i./ha) | inhibition at 10 ppm (Septoria tritici; [2]) | inhibition at 20 ppm (Septoria tritici; [2]) | inhibition at 20 ppm (Botrytis cinerea) | inhibition at 3 g/ha (Phakopsora pachyrhizi; 3 g a.i./ha) | inhibition at 1 g/ha (Phakopsora pachyrhizi; 1 g a.i./ha) | also measured
1-(2,6-difluoro-4-isopropyl-phenyl)pyrazole; methyl N-[(2,5-dimethylphenyl)methyl]carbamate [reference compound] | 3% | 65% |  |  |  |  |  | Observed Activity (%) (Septoria tritici; 0.0008 ppm): 20%; Observed Activity (%) (Septoria tritici; 0.00246 ppm): 70%
Fc1cccc(F)c1C1(Oc2ncc(-c3nnc(C(F)F)o3)cn2)CC1 [Compound A-1.2, 2-(difluoromethyl)-5-[2-[1-(2,6-difluorophenyl)cyclopropoxy]pyrimidin-5-yl]-1,3,4-oxadiazole] | 0% and 9% | 4% and 0% | 0% | 0% |  |  |  | Observed Activity (%) (Phakopsora pachyrhizi; 6 g a.i./ha): 5%
Fc1cccc(F)c1C1(Nc2ncc(-c3nnc(C(F)F)o3)cn2)CC1 [Compound A-1.3, 5-[5-(difluoromethyl)-1,3,4-oxadiazol-2-yl]-N-[1-(2,6-difluorophenyl)cyclopropyl]pyrimidin-2-amine] | 5% and 1% |  | 20% | 20% | 20% | 47% |  | inhibition at 10 ppm (Botrytis cinerea): 20%; inhibition at 10 ppm ([1]; 10 ppm): 20%; inhibition at 20 ppm ([1]; 20 ppm): 20%
Fc1ccccc1C1(Nc2ncc(-c3nnc(C(F)F)o3)cn2)CC1 [Compound A-1.4, 5-[5-(difluoromethyl)-1,3,4-oxadiazol-2-yl]-N-[1-(2-fluorophenyl)cyclopropyl]pyrimidin-2-amine] | 16% | 45% | 20% | 20% | 20% | 43% | 12% | inhibition at 10 ppm (Botrytis cinerea): 20%
CCOC(=O)c1cnn(Cc2ccc(O/C=C(\OCC)C(F)(F)F)cc2)c1 [ethyl 1-[[4-[(Z)-2-ethoxy-3,3,3-trifluoro-prop-1-enoxy]phenyl]methyl]pyrazole-4-carboxylate, reference compound] |  |  |  | 20% | 20% | 56% | 38% | inhibition at 6.66 ppm (Botrytis cinerea): 20%
CCOC(=O)c1cnn(Cc2ccc(OCC3(C(F)(F)F)OCCO3)cc2)c1 [ethyl 1-[[4-[[2-(trifluoromethyl)-1,3-dioxolan-2-yl]methoxy]phenyl]methyl]pyrazole-4-carboxylate] |  |  |  |  | 0% |  | 35% | inhibition at 6.66 ppm (Botrytis cinerea): 0%
COC(=O)NCc1cc(-c2ccn(-c3c(F)cc(C4CC4)cc3F)n2)ccc1C [methyl N-[[5-[1-(4-cyclopropyl-2,6-difluoro-phenyl)pyrazol-3-yl]-2-methyl-phenyl]methyl]carbamate, reference compound] |  |  |  |  |  | 54% | 12% | inhibition at 0.0008 ppm (Septoria tritici; Zymoseptoria tritici, 0.0008 ppm, read-out: Observed Activity (%)): 20%; inhibition at 0.0074 ppm (Botrytis cinerea; 0.0074 ppm): 0%; inhibition at 0.022 ppm (Botrytis cinerea; 0.022 ppm): 50%; inhibition at 0.00246 ppm ([1]; 0.00246 ppm): 20%
